What was measured:
L1210 [1] = test: Antiproliferative activity against mouse L1210 cells assessed as reduction in cell viability by MTT assay; type: functional, cell-based
SMMC-7721 = test: Antiproliferative activity against human SMMC-7721 cells assessed as reduction in cell viability incubated for 24 hrs by MTT assay; type: functional, cell-based; conditions: SMMC-7721, 24 h
MCF7 = test: Antiproliferative activity against human MCF7 cells assessed as reduction in cell viability incubated for 24 hrs by MTT assay; type: functional, cell-based; conditions: MCF7, 24 h
HCT-8 = test: Antiproliferative activity against human HCT-8 cells assessed as reduction in cell viability incubated for 24 hrs by MTT assay; type: functional, cell-based; conditions: HCT-8, 24 h
Hep 3B2 = test: Antiproliferative activity against human Hep3B cells assessed as reduction in cell viability; type: functional, cell-based
SiHa = test: Antiproliferative activity against human SiHa cells assessed as cell growth inhibition incubated for 48 hrs by sulforhodamine B assay; type: functional
PANC-1 = test: Antiproliferative activity against human PANC-1 cells assessed as cell growth inhibition incubated for 48 hrs by sulforhodamine B assay; type: functional
CAKI-1 = test: Anticancer activity against human CAKI-1 cells assessed as cell growth inhibition; type: functional; conditions: pooled result: one value given for 3 cell lines, strains, targets or settings
L1210 [2] = test: Anticancer activity against mouse L1210 cells assessed as reduction in cell viability by MTT assay; type: functional, cell-based
[3] = Cytotoxicity against Chinese hamster CHO cells assessed as reduction in cell viability incubated for 48 hrs by MTT assay; type: toxicity, cell-based, Cricetulus griseus
HL-60 [4] = test: Cytotoxicity against human HL-60 cells assessed as reduction in cell viability incubated for 48 hrs by MTT assay; type: functional, cell-based; conditions: HL-60, 48 h
L1210 [5] = test: Cytotoxicity against mouse L1210 cells assessed as reduction in cell viability incubated for 48 hrs by MTT assay; type: functional, cell-based; conditions: L1210, 48 h
[6] = Cytotoxicity against Chinese hamster CHO cells assessed as reduction in cell viability by MTT assay; type: toxicity, cell-based, Cricetulus griseus
HL-60 [7] = test: Cytotoxicity against human HL-60 cells assessed as reduction in cell viability by MTT assay; type: functional, cell-based
L1210 [8] = test: Antiproliferative activity against mouse L1210 cells assessed as reduction in cell viability incubated for 48 hrs by MTT assay; type: functional, cell-based; conditions: L1210, 48 h
Huh-7 = test: Anticancer activity against human Huh-7 cells assessed as reduction in cell viability incubated for 24 hrs by MTT assay; type: functional, cell-based; conditions: Huh-7, 24 h

For `CCN1CCN(c2cc3c(cc2F)c(=O)c(-c2nnc(S)n2N)cn3C2CC2)CC1`, the IC50 (L1210 [1]) was no more than 50000 nM.
Work on `O=C(N/N=C/c1ccc2c(c1)OCO2)c1cn(C2CC2)c2cc(N3CCNCC3)c(F)cc2c1=O` yielded an IC50 (SMMC-7721) of 2900 nM, an IC50 (MCF7) of 2900 nM and an IC50 (HCT-8) of 2900 nM.
With `CCn1cc(-c2nn(CN(C)C)c(=S)o2)c(=O)c2cc(F)c(N3CCN(C)CC3)cc21` the IC50 (Hep 3B2) was 8400 nM.
Work on `O=C(O)c1cn(C2CC2)c2cc(N3CCN(C(=O)CCSc4nnnn4-c4ccc(Br)cc4)CC3)c(F)cc2c1=O` yielded a GI50 (SiHa) of 60 nM and a GI50 (PANC-1) of 60 nM.
`C=C1CC(CN2CCN(c3cc4c(cc3F)c(=O)c(C(=O)O)cn4CC)CC2)(c2ccc(OC)cc2)OC1=O` (configuration not stated) gave a GI50 (CAKI-1) of 6460 nM.
`C=C1CC(CN2CCN(c3cc4c(cc3F)c(=O)c(C(=O)O)cn4CC)CC2)(c2ccccc2)OC1=O` (configuration not stated) gave a GI50 (CAKI-1) of 3390 nM.
With `CC1COc2c(N3CCN(C)CC3)c(F)cc3c(=O)c(-c4n[nH]c5cc(-c6ccc(O)c(O)c6)nn45)cn1c23` (configuration not stated) the IC50 (L1210 [2]) was 1200 nM.
In the case of `COc1ccc(/C=N/n2c(-c3cn4c5c(c(N6CCN(C)CC6)c(F)cc5c3=O)OCC4C)n[nH]c2=S)cc1O` (configuration not stated), the IC50 at 48 h [3] is reported as 10500 nM, the IC50 (HL-60 [4]) is reported as 10500 nM and the IC50 (L1210 [5]) is reported as 10500 nM.
In the case of `O=c1c(-c2nnc3n2N=C(c2ccc(O)c(O)c2)CS3)cn(C2CC2)c2cc(N3CCNCC3)c(F)cc12`, the IC50 (L1210 [2]) is reported as 1400 nM.
Work on `CC1COc2c(N3CCN(C)CC3)c(F)cc3c(=O)c(-c4nnc5n4N=C(c4ccc(O)c(O)c4)CS5)cn1c23` (configuration not stated) yielded an IC50 (L1210 [2]) of 1800 nM.
`COc1cc(/C=N/n2c(-c3cn4c5c(c(N6CCN(C)CC6)c(F)cc5c3=O)OCC4C)n[nH]c2=S)ccc1O` (configuration not stated) showed an IC50 at 48 h [3] of 10500 nM, an IC50 (HL-60 [4]) of 10500 nM and an IC50 (L1210 [5]) of 10500 nM.
With `COc1ccc(/C=N/n2c(-c3cn4c5c(c(N6CCN(C)CC6)c(F)cc5c3=O)OCC4C)nn(CN(C)C)c2=S)cc1O` (configuration not stated) the IC50 at 48 h [3] was 140 nM, the IC50 (HL-60 [4]) was 140 nM and the IC50 (L1210 [5]) was 140 nM.
In the case of `COc1ccccc1-c1nnc(CSc2nnc(-c3cn4c5c(c(N6CCN(C)CC6)c(F)cc5c3=O)OC[C@@H]4C)o2)o1`, the IC50 [6] is reported as 1000 nM, the IC50 (SMMC-7721) is reported as 1300 nM and the IC50 (HL-60 [7]) is reported as 2200 nM.
In the case of `COc1ccccc1-c1nnc(CSc2nnc(-c3cn4c5c(c(N6CC[N+](C)(C)CC6)c(F)cc5c3=O)OC[C@@H]4C)o2)o1`, the IC50 [6] is reported as 410 nM, the IC50 (SMMC-7721) is reported as 820 nM and the IC50 (HL-60 [7]) is reported as 1600 nM.
In the case of `C[C@H]1COc2c(N3CCN(C)CC3)c(F)cc3c(=O)c(-c4nn5c(-c6cn(C7CC7)c7cc(N8CCNCC8)c(F)cc7c6=O)nnc5s4)cn1c23`, the IC50 (L1210 [8]) is reported as 1500 nM.
`Nc1nnc(-c2cn(C3CC3)c3cc(N4CCNCC4)c(F)cc3c2=O)s1` showed an IC50 (Huh-7) of 25800 nM.
`CCN1CCN(c2cc3c(cc2F)c(=O)c(-c2nn4c(-c5cn(C6CC6)c6cc(N7CCN(CC)CC7)c(F)cc6c5=O)nnc4s2)cn3C2CC2)CC1` gave an IC50 (L1210 [1]) of 1200 nM.
With `CCn1cc(C(=O)O)c(=O)c2cnc(N3CCN(C(=O)CCSc4nnnn4-c4ccc(Br)cc4)CC3)nc21` the GI50 (SiHa) was 60 nM and the GI50 (PANC-1) was 60 nM.

Source: ChEMBL document CHEMBL5233217, “Modification of 7-piperazinylquinolone antibacterials to promising anticancer lead compounds: Synthesis and in vitro studies” (Eur J Med Chem, 2020)
